Laboratory results as given in US8946224B2, “Substituted [1,2,4]triazolo[4,3-A]pyrazines for medicaments and pharmaceutical compositions” (Redx Pharma Limited, priority 2010, dated 2015).
Like-named read-outs stand apart in the source and are kept apart here. Each block holds one compound with its values, some of them ahead of it.

Assays:
[1] = test system: PathHunter NHRPro cell lines; experiment: PathHunter NHRPro cell assay, antagonist format (Examples 90-92); assay type: cell-based; settings: for Emax: read-out: Max Response; for IC50: read-out: RC50 (IC50)
Protocol: Methodology for Examples 90-92 Cell Handling
PathHunter NHRPro cell lines were expanded from freezer stocks in T25 flasks according to standard procedures and maintained in selective growth media prior to assay.
Once it was established that the cells were healthy and growing normally, cells were passaged from flasks using cell dissociation reagent and seeded into white walled clear bottom 384-well microplates for compound profiling.
For profiling, cells were seeded at a density of 10000 cells per well in a total volume of 20 μL and were allowed to adhere and recover overnight prior to compound addition. Media contained charcoal-dextran filtered serum to reduce the level of hormones present.
Agonist dose curves were performed the morning of profiling to determine the EC80 value for the following antagonist testing with compounds. 5 μL of 5× agonist was added to each well with an equal concentration of vehicle present.
EC80 agonist concentration was determined directly from agonist dose curve.
For antagonist determination, cells were pre-incubated with antagonist followed by agonist challenge at the EC80 concentration.
5 μL of 5× compound added to cells and incubated at 37° C. for 30 minutes.
5 μL of 6× EC80 agonist added to cells and incubated at 37° C. for 90 minutes (180 minutes for EDG2 and EDG8).
After appropriate compound incubation, assay signal was generated through a single addition of 15 μL (50% v/v) of PathHunter Detection reagent cocktail for agonist and antagonist assays respectively followed by one hour incubation at room temperature.
Microplates were read following signal generation with a PerkinElmer Envision™ instrument for chemiluminescent signal detection.
Dose curves in the presence and absence of compound were plotted using GraphPad Prism or Activity Base.

[2] = test system: HepG2 cells; experiment: HepG2 cytotoxicity, MTT, 72 hours (Examples 93-95); assay type: cell-based; settings: for MEC (minimum effective concentration that significantly crosses vehicle threshold) / AC50: Cell Loss; for AC50: Homo sapiens, HepG2, read-out: AC50 (concentration at which 50% maximum effect is observed)
Protocol: Methodology for Examples 93-95
A number of analogues were tested for their ability to kill cancer cells.
HepG2 cells were plated on 96-well tissue culture treated polystyrene plates at 0.5×10^4 cells in 100 μL per well. After 24 hr the cells are dosed with test compound at a range of concentrations and incubated for 72 hours. One hour prior to the end of the incubation period, the cells are loaded with MU [yellow; 3-(4,5-dimethyl-2-thiazolyl)-2,5-diphenyl-2H-tetrazolium bromide], the plates are dried and re-solubilised using DMSO. The plates are then scanned using SpectraFluor Plus (TECAN).
Cytotoxicity was assessed using MU. The assay provides a measurement of mitochondrial dehydrogenase activity and cell loss.
A decrease can indicate a loss of cells indicating toxicity due to necrosis, apoptosis or a reduction in cellular proliferation.
A decrease can also indicate an effect on mitochondrial function as mitochondrial dehydrogenasesreduce the MTT [yellow; 3-(4,5-dimethyl-2-thiazolyl)-2,5-diphenyl-2H-tetrazolium bromide] to formazan. The formazan is detected in this assay.
The cells were dosed at concentrations of 0.04, 0.1, 0.4, 1, 4, 10, 40 and 100 μM. The assay was repeated three times at each concentration.
AC50=The concentration at which 50% maximum effect is observed for each cell health parameter.
The cells were dosed at concentrations of 0.02, 0.05, 0.2, 0.5, 2, 5, 20 and 50 μM. The assay was repeated three times at each concentration.
The cells were dosed at concentrations of 0.04, 0.1, 0.4, 1, 4, 10, 40 and 100 μM for bexarotene and the compound of formula 102 when Z is CH═NOH (compound 13a). The cells were dosed at concentrations of 0.02, 0.05, 0.2, 0.5, 2, 5, 20 and 50 μM for the compound of formula 102 when Z is CH═NOMe (compound 13b). The assay was repeated three times at each concentration.

[3] = target: T1, recombinant human MAO-B (Homo sapiens, UniProt P27338); experiment: MAO-B inhibition, kynuramine substrate, LC-MS/MS of 4-hydroxyquinoline (Example 99); assay type: biochemical; settings: for remaining activity at 0.001 µM: 0.001 μM test compound; for remaining activity at 0.001 µM / remaining activity at 0.01 µM / remaining activity at 0.04 µM / remaining activity at 0.1 µM / remaining activity at 0.4 µM / remaining activity at 1 µM / remaining activity at 10 µM: kynuramine 25 μM, read-out: Mean % Activity Remaining (n = 2); for remaining activity at 0.01 µM: 0.010 μM test compound; for remaining activity at 0.04 µM: 0.04 μM test compound; for remaining activity at 0.1 µM: 0.1 μM test compound; for remaining activity at 0.4 µM: 0.4 μM test compound; for remaining activity at 1 µM: 1 μM test compound; for remaining activity at 10 µM: 10 μM test compound; for IC50: MAO-B, substrate kynuramine 25 μM
T1 sequence (P27338 1-520): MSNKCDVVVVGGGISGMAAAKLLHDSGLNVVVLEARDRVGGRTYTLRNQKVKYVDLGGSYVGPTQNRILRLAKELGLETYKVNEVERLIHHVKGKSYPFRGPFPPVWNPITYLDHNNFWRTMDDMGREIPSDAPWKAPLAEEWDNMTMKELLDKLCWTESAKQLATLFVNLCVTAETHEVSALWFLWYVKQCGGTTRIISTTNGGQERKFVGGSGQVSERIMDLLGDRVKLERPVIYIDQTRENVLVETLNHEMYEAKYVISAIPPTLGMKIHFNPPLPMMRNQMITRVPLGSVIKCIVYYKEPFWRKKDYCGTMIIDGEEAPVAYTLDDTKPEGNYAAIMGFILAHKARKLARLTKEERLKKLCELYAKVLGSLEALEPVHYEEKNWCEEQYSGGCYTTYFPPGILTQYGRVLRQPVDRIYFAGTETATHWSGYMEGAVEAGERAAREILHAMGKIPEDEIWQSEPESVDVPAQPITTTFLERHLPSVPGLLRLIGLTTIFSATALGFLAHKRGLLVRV
Protocol: Eight test compound concentrations (0.001-10 μM; final DMSO concentration 0.5%) were incubated with recombinant human MAO-B (2 μg/mL) in the presence of the probe substrate kynuramine (25 μM) for 25 min at 37° C. Each test compound concentration was assessed in duplicate. […] The reactions were terminated by addition of methanol containing internal standard for analytical quantification. The quenched samples were incubated at 4° C. for 10 min and centrifuged at 4° C. for 10 min. The supernatant was removed and analysed by LC-MS/MS for the probe metabolite 4-hydroxyquinoline. Generic Cyprotex LC-MS/MS analytical conditions were used.
A decrease in the formation of the metabolite compared to vehicle control was used to calculate an IC50 value.

[4] = Example 95, dosed 0.04-100 μM (compound 13b 0.02-50 μM)

IC50 ([1]; AVPR2, Arrestin): 2.37 µM
Compound: Cc1ccc(F)cc1CNc1ccc(C(=O)N2Cc3cccn3Cc3ccccc32)c(Cl)c1 [Compound 15b, (5H-Benzo[e]pyrrolo[1,2-a][1,4]diazepin-10(11H)-yl)(2-chloro-4-(5-fluoro-2-methylbenzylamino)phenyl)methanone]
Emax ([1]; AVPR2, Arrestin): 79.4%

IC50 ([1]; AGTR1, Arrestin): 0.248 µM
Compound: CCCCc1nc(Cl)c(C=NOC)n1Cc1ccc(-c2ccccc2-c2nn[nH]n2)cc1 [Compound 4b, 1-((2′-(2H-Tetrazol-5-yl)-[1′,1′-biphenyl]-4-yl)methyl)-2-butyl-4-chloro-1H-imidazole-5-carbaldehyde O-methyl oxime]
Emax ([1]; AGTR1, Arrestin): 97.4%

IC50 ([1]; AGTR1, Arrestin): 0.0488 µM
Compound: CCOc1nc2cccc(C=NOC)c2n1Cc1ccc(-c2ccccc2-c2nnn[nH]2)cc1 [Compound 10b, 1-((2′-(1H-tetrazol-5-yl)-[1,1′-biphenyl]-4-yl)methyl)-2-ethoxy-1H-benzo[d]imidazole-7-carbaldehyde O-methyl oxime]
Emax ([1]; AGTR1, Arrestin): 98.8%

remaining activity at 0.001 µM [3]: 90%
remaining activity at 0.01 µM [3]: 84%
remaining activity at 0.04 µM [3]: 73%
remaining activity at 0.1 µM [3]: 65%
remaining activity at 0.4 µM [3]: 50%
remaining activity at 1 µM [3]: 26%
remaining activity at 10 µM [3]: 4%
IC50 [3]: 0.246 µM
Compound: C[C@@H](C=NO)NCc1ccc(OCc2cccc(F)c2)cc1 [Compound 31a, (S)-2-(4-(3-Fluorobenzyloxy)benzylamino)propanal oxime]

IC50 ([1]; AVPR2, Arrestin): 0.0038 µM
Compound: Cc1ccc(F)cc1C(=O)Nc1ccc(CN2Cc3cccn3Cc3ccccc32)c(Cl)c1 [Compound 15a, N-(4-((5H-Benzo[e]pyrrolo[1,2-a][1,4]diazepin-10(11H)-yl)methyl)-3-chlorophenyl)-5-fluoro-2-methylbenzamide]
Emax ([1]; AVPR2, Arrestin): 108%

remaining activity at 0.001 µM [3]: 90%
remaining activity at 0.01 µM [3]: 75%
remaining activity at 0.04 µM [3]: 57%
remaining activity at 0.1 µM [3]: 34%
remaining activity at 0.4 µM [3]: 15%
remaining activity at 1 µM [3]: 6%
remaining activity at 10 µM [3]: 1%
IC50 [3]: 0.046 µM
Compound: CON=C[C@H](C)NCc1ccc(OCc2cccc(F)c2)cc1 [Compound 31b, (S)-2-(4-(3-Fluorobenzyloxy)benzylamino)propanal O-methyl oxime]

IC50 ([1]; AGTR1, Arrestin): 0.0465 µM
Compound: CCOc1nc2cccc(C=NO)c2n1Cc1ccc(-c2ccccc2-c2nnn[nH]2)cc1 [Compound 10a, 1-((2′-(1H-Tetrazol-5-yl)-[1,1′-biphenyl]-4-yl)methyl)-2-ethoxy-1H-benzo[d]imidazole-7-carbaldehyde oxime]
Emax ([1]; AGTR1, Arrestin): 101%

IC50 ([1]; AGTR1, Arrestin): 0.109 µM
Compound: CCCCc1nc(Cl)c(C=NO)n1Cc1ccc(-c2ccccc2-c2nn[nH]n2)cc1 [Compound 4a, 1-((2′-(2H-Tetrazol-5-yl)-[1,1′-biphenyl]-4-yl)methyl)-2-butyl-4-chloro-1H-imidazole-5-carbaldehyde oxime]
Emax ([1]; AGTR1, Arrestin): 96.7%

The remaining lines, values behind:

Compound: CCCCC(=O)N(Cc1ccc(-c2ccccc2-c2nnn[nH]2)cc1)[C@H](C(=O)O)C(C)C [Valsartan]
Emax ([1]; AGTR1, Arrestin): 106%
IC50 ([1]; AGTR1, Arrestin): 0.0017 µM

Compound: CCOc1nc2cccc(C(=O)O)c2n1Cc1ccc(-c2ccccc2-c2nnn[nH]2)cc1 [Candesartan]
Emax ([1]; AGTR1, Arrestin): 101%
IC50 ([1]; AGTR1, Arrestin): 0.00987 µM

Compound: C=C(c1ccc(C=NOC)cc1)c1cc2c(cc1C)C(C)(C)CCC2(C)C [Compound 13b, 4-(1-(3,5,5,8,8-Pentamethyl-5,6,7,8-tetrahydronaphthalen-2-yl)vinyl)benzaldehyde O-methyl oxime]
MEC (minimum effective concentration that significantly crosses vehicle threshold) [2, 4]: 50 µM
AC50 [2, 4]: 45.6 µM

Compound: CC(=O)c1c(C)c2cnc(Nc3ccc(N4CCNCC4)cn3)nc2n(C2CCCC2)c1=O [PD-0332991]
MEC (minimum effective concentration that significantly crosses vehicle threshold) ([2]; Example 94, dosed 0.02-50 μM): 0.2 µM
AC50 ([2]; Example 94, dosed 0.02-50 μM): 1.93 µM

Compound: Cn1c(CCCC=NO)nc2cc(N(CCCl)CCCl)ccc21 [Compound 6b, 4-(5-(Bis(2-chloroethyl)amino)-1-methyl-1H-benzo[d]imidazol-2-yl)butanal oxime]
MEC (minimum effective concentration that significantly crosses vehicle threshold) ([2]; Example 93, dosed 0.04-100 μM): 10 µM
AC50 ([2]; Example 93, dosed 0.04-100 μM): 17.3 µM

Compound: Cn1c(CCCC(=O)O)nc2cc(N(CCCl)CCCl)ccc21 [Bendamustine, bendamustine, reference compound]
MEC (minimum effective concentration that significantly crosses vehicle threshold) ([2]; Example 93, dosed 0.04-100 μM): 40 µM
AC50 ([2]; Example 93, dosed 0.04-100 μM): 92.3 µM

Compound: Cc1ccc(F)cc1C(=O)Nc1ccc(C(=O)N2Cc3cccn3Cc3ccccc32)c(Cl)c1 [Lixivaptan, lixivaptan, reference compound]
Emax ([1]; AVPR2, Arrestin): 102%
IC50 ([1]; AVPR2, Arrestin): 0.00128 µM

Compound: C=C(c1ccc(C(=O)O)cc1)c1cc2c(cc1C)C(C)(C)CCC2(C)C [Bexarotene, bexarotene, reference compound]
MEC (minimum effective concentration that significantly crosses vehicle threshold) [2, 4]: 40 µM
AC50 [2, 4]: 44.3 µM

Compound: C[C@H](NCc1ccc(OCc2cccc(F)c2)cc1)C(N)=O [Safinamide, safinamide, reference compound]
remaining activity at 0.001 µM [3]: 101%
remaining activity at 0.01 µM [3]: 95%
remaining activity at 0.04 µM [3]: 79%
remaining activity at 0.1 µM [3]: 62%
remaining activity at 0.4 µM [3]: 31%
remaining activity at 1 µM [3]: 13%
remaining activity at 10 µM [3]: 2%

Compound: Cn1c(CCCC=O)nc2cc(N(CCCl)CCCl)ccc21 [Compound 6a, 4-(5-(Bis(2-chloroethyl)amino)-1-methyl-1H-benzo[d]imidazol-2-yl)butanal]
MEC (minimum effective concentration that significantly crosses vehicle threshold) ([2]; Example 93, dosed 0.04-100 μM): 4 µM
Activity in HepG2 cell assay (in words) ([2]; Example 93, 0.04-100 μM, 72 hours): exhibited a higher activity than compound 6b
AC50 ([2]; Example 93, dosed 0.04-100 μM): 5.83 µM

Compound: CCCCc1nc(Cl)c(CO)n1Cc1ccc(-c2ccccc2-c2nn[nH]n2)cc1 [Losartan]
Emax ([1]; AGTR1, Arrestin): 98.6%
IC50 ([1]; AGTR1, Arrestin): 0.00821 µM
